The results in this text go back to PubChem BioAssay (NCI).

The structures appear in SMILES notation.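 Where inhibition never reached the appropriate level, the endpoint shown equals the highest concentration tested. Otherwise, values were interpolated linearly from a five-concentration, 48-hour dose response in 96-well plates. Here, GI50 denotes the concentration required for 50% inhibition of growth. TGI denotes the concentration required for complete inhibition of growth.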

Some test systems named below: NCI/ADR-RES ovarian; SR leukemia; SK-MEL-5 melanoma; PC-3 prostate; RPMI-8226 leukemia; HCT-15 colon; CCRF-CEM leukemia; MDA-MB-231 breast; T-47D breast; HCC-2998 colon.
What all share (assay): DTP human tumour cell line panel, 48 h

In the case of `COc1cc(/C=C/c2ccc(C)cc2)cc(OC)c1OC`, the TGI – broadly, the concentration giving total growth inhibition – with NCI/ADR-RES ovarian turned out to be 4.9 µM; in the assay on SR leukemia, 16.6 µM; in the assay with SK-MEL-5 melanoma, 13.3 µM; in the assay on PC-3 prostate, 11.4 µM; with RPMI-8226 leukemia, 43.7 µM; in the assay on HCT-15 colon it was 20.1 µM. Further, the TGI in the assay on CCRF-CEM leukemia was 25.4 µM; in the assay with MDA-MB-231 breast, more than 100 µM; in the assay on T-47D breast, 20.6 µM.

Regarding `O=C(/C=C(\O)C(=O)O)/C=C(\O)c1ccccc1`, the GI50 (commonly the concentration that inhibits growth by half) in the assay with SR leukemia was more than 1 µM; in the assay on SK-MEL-5 melanoma, more than 1 µM; with HCC-2998 colon, more than 100 µM; in the assay on RPMI-8226 leukemia, more than 100 µM; in the assay with HCT-15 colon, more than 1 µM; in the assay with CCRF-CEM leukemia, more than 1 µM. For the same compound, the TGI in the assay with SR leukemia was more than 100 µM; in the assay on SK-MEL-5 melanoma it was more than 1 µM; in the assay with HCC-2998 colon, more than 100 µM; in the assay with RPMI-8226 leukemia it was more than 100 µM; in the assay on HCT-15 colon, more than 100 µM; with CCRF-CEM leukemia, more than 100 µM.

On to `O=[N+]([O-])c1cccc(/C=N/NC2=CS(=O)(=O)C=C2)c1`, for which the TGI with NCI/ADR-RES ovarian, in the assay with SR leukemia, in the assay on SK-MEL-5 melanoma, with PC-3 prostate, with RPMI-8226 leukemia and with HCT-15 colon was more than 100 µM each time. In addition, the TGI with CCRF-CEM leukemia, with MDA-MB-231 breast and in the assay with T-47D breast was more than 100 µM each time.

With `Oc1c(C(Nc2ccccc2Br)c2ccccc2)ccc2cccnc12` (stereo unspecified), the GI50 is 1.44 µM in the assay on NCI/ADR-RES ovarian; 0.715 µM in the assay with SR leukemia; 1.72 µM with SK-MEL-5 melanoma; 2.19 µM with HCC-2998 colon; 3.92 µM with PC-3 prostate; 6.28 µM with RPMI-8226 leukemia. Moreover, the GI50 with HCT-15 colon is 0.672 µM; in the assay on MDA-MB-231 breast, 3.9 µM; in the assay with T-47D breast it was 3.77 µM. Further, the TGI with NCI/ADR-RES ovarian was 24.5 µM; with SR leukemia, more than 100 µM; in the assay on SK-MEL-5 melanoma, 7.38 µM; in the assay with HCC-2998 colon it was 97.9 µM; with PC-3 prostate, more than 100 µM; in the assay on RPMI-8226 leukemia, more than 100 µM. In addition, the TGI in the assay with HCT-15 colon was found to be 27.3 µM; in the assay on MDA-MB-231 breast, 58.9 µM; in the assay on T-47D breast, 73.1 µM.

As to `COc1ccc2c(c1)[n+](=O)c(C(=O)c1cccs1)c(C(F)(F)F)n2[O-]`, the GI50 with NCI/ADR-RES ovarian was 4.99 µM; in the assay with SR leukemia, 0.775 µM; in the assay with SK-MEL-5 melanoma, 1.23 µM; in the assay on HCC-2998 colon, 4.72 µM; in the assay with PC-3 prostate, 2.42 µM; in the assay with RPMI-8226 leukemia, 3.41 µM. Besides, the GI50 with CCRF-CEM leukemia was 11 µM; with MDA-MB-231 breast, 7.38 µM; in the assay on T-47D breast, 5.26 µM. In addition, the concentration for total growth inhibition (TGI) is more than 50 µM in the assay on NCI/ADR-RES ovarian; more than 50 µM in the assay on SR leukemia; 5.91 µM with SK-MEL-5 melanoma; 22.7 µM with HCC-2998 colon; 18.6 µM in the assay on PC-3 prostate; more than 50 µM in the assay on RPMI-8226 leukemia. Also, the TGI in the assay on CCRF-CEM leukemia was more than 50 µM; in the assay on MDA-MB-231 breast, 25.4 µM; with T-47D breast, 29.8 µM.

As for `COc1c(C(C)=O)c(OCCCCOc2c(C(C)=O)c(OC)c3ccoc3c2OC)c(OC)c2occc12`, the GI50 in the assay with NCI/ADR-RES ovarian is 1.61 µM; in the assay with SR leukemia, 0.258 µM; with SK-MEL-5 melanoma, 1.52 µM; in the assay on HCC-2998 colon, more than 100 µM; with PC-3 prostate, 1.69 µM; with RPMI-8226 leukemia, 0.394 µM. In addition, the GI50 in the assay on HCT-15 colon was 3.88 µM; with T-47D breast it was 2.02 µM. In addition, the TGI is 4.92 µM in the assay on NCI/ADR-RES ovarian; 7.72 µM with SR leukemia; 3.4 µM in the assay with SK-MEL-5 melanoma; more than 100 µM with HCC-2998 colon; more than 20.6 µM with PC-3 prostate; 5.57 µM in the assay on RPMI-8226 leukemia. For the same compound, the figures for the TGI in the assay with HCT-15 colon, in the assay with MDA-MB-231 breast and in the assay on T-47D breast were more than 100 µM, more than 100 µM and more than 26.4 µM, respectively.

For `O=c1c2c([nH]c3nccn13)CCC2`, the TGI with NCI/ADR-RES ovarian, in the assay on SR leukemia, with SK-MEL-5 melanoma, in the assay with PC-3 prostate, in the assay on RPMI-8226 leukemia and with HCT-15 colon was more than 10 µM in each case. In addition, the concentration for total growth inhibition (TGI) with CCRF-CEM leukemia, with MDA-MB-231 breast and with T-47D breast was more than 10 µM each time.

On to `[N-]=[N+]=NC(c1cn(C2CC(O)C(CO)O2)c(=O)[nH]c1=O)C(Cl)Br` (stereo unspecified), for which the total growth inhibition concentration (TGI) with SR leukemia, in the assay on SK-MEL-5 melanoma, in the assay on HCC-2998 colon, in the assay with RPMI-8226 leukemia, with HCT-15 colon and in the assay with CCRF-CEM leukemia was more than 100 µM throughout.

As for `N#CC(CCN1CCC(Nc2ccccc2)(c2nnnn2C2CCCCC2)CC1)(c1ccccc1)c1ccccc1`, the concentration for total growth inhibition (TGI) with NCI/ADR-RES ovarian, in the assay with SR leukemia, with SK-MEL-5 melanoma, in the assay on HCC-2998 colon, in the assay with PC-3 prostate and in the assay with RPMI-8226 leukemia was more than 100 µM in each case. Further, the TGI in the assay on HCT-15 colon, with CCRF-CEM leukemia and with MDA-MB-231 breast was more than 100 µM each time.

Regarding `CCCCC(SC(=S)N1CCCC1)C(=O)Nc1nc(CC(=O)OCC)cs1` (stereo unspecified), the GI50 with NCI/ADR-RES ovarian is 37.6 µM; in the assay with SR leukemia it was 4.83 µM; with SK-MEL-5 melanoma it was 13.1 µM; in the assay with HCC-2998 colon, 99.5 µM; in the assay with PC-3 prostate, 0.985 µM; with RPMI-8226 leukemia, 10.6 µM. For the same compound, the GI50 was 66.1 µM in the assay on HCT-15 colon, more than 100 µM in the assay with MDA-MB-231 breast and 30.5 µM in the assay with T-47D breast. Also, the TGI in the assay with NCI/ADR-RES ovarian is more than 100 µM; in the assay with SR leukemia, more than 100 µM; in the assay on SK-MEL-5 melanoma it was 45.6 µM; in the assay with HCC-2998 colon, more than 100 µM; in the assay with PC-3 prostate, more than 100 µM; in the assay with RPMI-8226 leukemia, 90.9 µM. Moreover, the TGI in the assay with HCT-15 colon, with MDA-MB-231 breast and in the assay with T-47D breast was more than 100 µM throughout.

Regarding `Cc1cn2c(/C=C3/C(=O)Nc4c3ccc3ccccc43)c(C(F)(F)F)nc2s1`, the GI50 in the assay on NCI/ADR-RES ovarian was 0.456 µM; with SR leukemia it was 0.238 µM; in the assay on SK-MEL-5 melanoma it was 1.03 µM; in the assay with HCC-2998 colon it was 3.23 µM; in the assay on PC-3 prostate, 1.24 µM; with HCT-15 colon it was 0.618 µM. For the same compound, the GI50 in the assay with CCRF-CEM leukemia was 2.33 µM; in the assay on T-47D breast, 2.88 µM. Further, the TGI in the assay with NCI/ADR-RES ovarian was more than 100 µM; in the assay with SR leukemia, 26.4 µM; in the assay with SK-MEL-5 melanoma, more than 100 µM; in the assay on HCC-2998 colon, more than 100 µM; with PC-3 prostate it was more than 100 µM; with HCT-15 colon, more than 100 µM. In addition, the TGI in the assay with CCRF-CEM leukemia is 39.8 µM; in the assay with T-47D breast, more than 100 µM.
